The values below come from ChEMBL document CHEMBL1152602, “A new therapeutic approach in Parkinson's disease: some novel quinazoline derivatives as dual selective phosphodiesterase 1 inhibitors and anti-inflammatory agents” (Bioorg Med Chem, 2009).

The subject of assay [1] is Rattus norvegicus. The experiment in a line: Antiinflammatory activity in Sprague-Dawley rat assessed as inhibition of carrageenan-induced paw edema at 50 mg/kg, ip treated 60 mins before carrageenan challenge measured after 90 mins. Type of assay: functional. The conditions noted are these: route intraperitoneal. In general terms: The carrageenan paw model is a standard test of acute inflammation.

Assay [2] has as its system Rattus norvegicus. The experiment in a line: Antiinflammatory activity in Sprague-Dawley rat assessed as inhibition of carrageenan-induced paw edema at 50 mg/kg, po treated 60 mins before carrageenan challenge measured after 180 mins. Type of assay: functional.
In assay [3] the test system is Rattus norvegicus. The experiment in a line: Antiinflammatory activity in Sprague-Dawley rat assessed as inhibition of carrageenan-induced paw edema at 50 mg/kg, ip treated 60 mins before carrageenan challenge measured after 180 mins. It is filed as functional. The settings on record: route intraperitoneal.
Assay [4] is described as follows: Inhibition of PDE1.
The subject of assay [5] is Rattus norvegicus. The experiment in a line: Antiinflammatory activity in Sprague-Dawley rat assessed as inhibition of carrageenan-induced paw edema at 50 mg/kg, po treated 60 mins before carrageenan challenge measured after 90 mins. It is filed as functional.

On to `Cc1ccc(-c2cc(-c3ccc(Cl)cc3)c3c(ncn4c(=O)c5ccccc5nc34)n2)cc1`, for which the inhibition in vivo at 50 mg/kg is 38% in the assay on Rattus norvegicus [1], 49% with Rattus norvegicus [2], 53% in the assay on Rattus norvegicus [3] and 37% in the assay on Rattus norvegicus [5]. This compound gave an IC50 in assay [4] of 98.2 µM.

Turning to `Cc1ccc(-c2cc(-c3ccc(Cl)cc3)c3c(ncn4c(=O)c5cc(Br)ccc5nc34)n2)cc1`, the inhibition in vivo at 50 mg/kg came to 82% with Rattus norvegicus [1], 87% with Rattus norvegicus [2], 89% in the assay on Rattus norvegicus [3] and 80% in the assay on Rattus norvegicus [5]. The IC50 in assay [4] came to 66.4 µM.

With `Cc1ccc(-c2cc(Cc3ccco3)c3c(ncn4c(=O)c5ccccc5nc34)n2)cc1`, the inhibition in vivo at 50 mg/kg in the assay on Rattus norvegicus [1] was found to be 6%; with Rattus norvegicus [2] it was 22%; with Rattus norvegicus [3], 20%; with Rattus norvegicus [5] it was 11%. The compound further had an IC50 in assay [4] of 56.4 µM.

On to `COc1ccc(-c2cc(-c3cccc([N+](=O)[O-])c3)c3c(ncn4c(=O)c5cc(Br)ccc5nc34)n2)cc1`, for which the inhibition in vivo at 50 mg/kg worked out at 13% in the assay on Rattus norvegicus [1], 25% in the assay on Rattus norvegicus [2], 30% in the assay on Rattus norvegicus [3] and 12% in the assay on Rattus norvegicus [5]. In assay [4], this compound showed an IC50 of 101 µM.

In the case of `COc1ccc(-c2cc(-c3cccc([N+](=O)[O-])c3)c3c(ncn4c(=O)c5ccccc5nc34)n2)cc1`, the inhibition in vivo at 50 mg/kg with Rattus norvegicus [1] was found to be 3%; in the assay with Rattus norvegicus [2], 9%; in the assay on Rattus norvegicus [3] it was 16%; with Rattus norvegicus [5], 3%. Moreover, the midpoint of inhibition in assay [4], the IC50, lay at 39.9 µM.

In the case of `Cc1ccc(-c2cc(-c3ccc(Cl)cc3)c3c(ncn4c(=O)c5cc(Br)cc(Br)c5nc34)n2)cc1`, the inhibition in vivo at 50 mg/kg in the assay with Rattus norvegicus [1] turned out to be 78%; with Rattus norvegicus [2], 80%; with Rattus norvegicus [3] it was 83%; with Rattus norvegicus [5] it was 72%. The compound also registered an IC50 in assay [4] of 57.6 µM.

Turning to `COc1ccc(-c2cc(-c3ccccc3)nc3ncn4c(=O)c5cc(Br)ccc5nc4c23)cc1`, the inhibition in vivo at 50 mg/kg is 28% with Rattus norvegicus [1], 41% with Rattus norvegicus [2], 44% in the assay with Rattus norvegicus [3] and 26% with Rattus norvegicus [5]. Moreover, in assay [4], half-maximal inhibition (IC50) was put at 76.6 µM.

`Cc1sc2ncn3c(=O)c4cc(Br)ccc4nc3c2c1C`: the inhibition in vivo at 50 mg/kg in the assay with Rattus norvegicus [1] is 66%; in the assay with Rattus norvegicus [2], 71%; in the assay on Rattus norvegicus [3], 76%; with Rattus norvegicus [5], 63%. Besides, in assay [4], the IC50 is 146 µM.

Consider `O=c1c2ccccc2nc2c3c(-c4ccccc4)cc(-c4ccc(Cl)cc4)nc3ncn12`, for which the inhibition in vivo at 50 mg/kg with Rattus norvegicus [1] is 18%; with Rattus norvegicus [2], 26%; with Rattus norvegicus [3] it was 34%; in the assay on Rattus norvegicus [5] it was 18%. In addition, inhibition in assay [4] was half-maximal at 80.6 µM (IC50).

Consider `Cc1ccc(-c2csc3ncn4c(=O)c5cc(Br)cc(Br)c5nc4c23)cc1`, for which the inhibition in vivo at 50 mg/kg was 22% with Rattus norvegicus [1], 33% in the assay with Rattus norvegicus [2], 37% with Rattus norvegicus [3] and 20% in the assay on Rattus norvegicus [5]. Further, 61.9 µM corresponded to half-maximal inhibition in assay [4] (IC50).

As for `O=c1c2ccccc2nc2c3c(-c4ccc([N+](=O)[O-])cc4)cc(-c4ccc([N+](=O)[O-])cc4)nc3ncn12`, the inhibition in vivo at 50 mg/kg with Rattus norvegicus [1] came to 11%; in the assay on Rattus norvegicus [2], 11%; in the assay with Rattus norvegicus [3] it was 23%; in the assay with Rattus norvegicus [5] it was 5%. In assay [4], this compound gave an IC50 of 83.7 µM.

`Cc1ccc(-c2cc(-c3ccccc3)nc3ncn4c(=O)c5ccccc5nc4c23)cc1`: the inhibition in vivo at 50 mg/kg in the assay with Rattus norvegicus [1] came out at 8%; with Rattus norvegicus [2], 15%; with Rattus norvegicus [3] it was 20%; with Rattus norvegicus [5], 8%. In assay [4], this compound gave an IC50 of 91.8 µM.

For `O=c1c2cc(Br)cc(Br)c2nc2c3c(-c4ccccc4)cc(-c4ccc(Cl)cc4)nc3ncn12`, the inhibition in vivo at 50 mg/kg with Rattus norvegicus [1] is 30%; in the assay on Rattus norvegicus [2], 42%; with Rattus norvegicus [3], 47%; in the assay with Rattus norvegicus [5], 28%. This compound also gave an IC50 in assay [4] of 78 µM.

Turning to `O=c1c2cc(Br)cc(Br)c2nc2c3c(-c4ccc([N+](=O)[O-])cc4)cc(-c4ccc([N+](=O)[O-])cc4)nc3ncn12`, the inhibition in vivo at 50 mg/kg stood at 47% in the assay on Rattus norvegicus [1], 54% in the assay on Rattus norvegicus [2], 56% in the assay on Rattus norvegicus [3] and 46% in the assay on Rattus norvegicus [5]. In assay [4], this compound registered an IC50 of 72.5 µM.

As to `O=c1c2cc(Br)ccc2nc2c3c(-c4ccc([N+](=O)[O-])cc4)cc(-c4ccc([N+](=O)[O-])cc4)nc3ncn12`, the inhibition in vivo at 50 mg/kg was 11% in the assay with Rattus norvegicus [1], 22% with Rattus norvegicus [2], 28% in the assay with Rattus norvegicus [3] and 10% in the assay with Rattus norvegicus [5]. Moreover, the IC50 in assay [4] amounted to 101 µM.

With `O=c1c2cc(Br)ccc2nc2c3c(-c4ccc(Cl)cc4)csc3ncn12`, the inhibition in vivo at 50 mg/kg with Rattus norvegicus [1] was determined as 29%; with Rattus norvegicus [2], 44%; in the assay with Rattus norvegicus [3], 50%; in the assay with Rattus norvegicus [5] it was 26%. In addition, the IC50 in assay [4] was determined as 90.5 µM.

For the compound `COc1ccc(-c2csc3ncn4c(=O)c5cc(Br)cc(Br)c5nc4c23)cc1`, the inhibition in vivo at 50 mg/kg stood at 16% with Rattus norvegicus [1], 29% with Rattus norvegicus [2], 31% with Rattus norvegicus [3] and 15% in the assay on Rattus norvegicus [5]. The same compound yielded an IC50 in assay [4] of 60.5 µM.

For the compound `O=c1c2cc(Br)ccc2nc2c3c4c(sc3ncn12)CCCC4`, the inhibition in vivo at 50 mg/kg in the assay with Rattus norvegicus [1] is 63%; in the assay with Rattus norvegicus [2] it was 68%; with Rattus norvegicus [3], 71%; in the assay on Rattus norvegicus [5], 60%. Further, inhibition in assay [4] was half-maximal at 128 µM (IC50).

For the compound `Cc1ccc(-c2csc3ncn4c(=O)c5cc(Br)ccc5nc4c23)cc1`, the inhibition in vivo at 50 mg/kg with Rattus norvegicus [1] is 42%; in the assay on Rattus norvegicus [2], 52%; with Rattus norvegicus [3], 56%; in the assay on Rattus norvegicus [5], 40%. The compound also returned an IC50 in assay [4] of 85.3 µM.

Regarding `COc1ccc(-c2cc(-c3ccccc3)nc3ncn4c(=O)c5ccccc5nc4c23)cc1`, the inhibition in vivo at 50 mg/kg with Rattus norvegicus [1] was 8%; with Rattus norvegicus [2], 18%; with Rattus norvegicus [3] it was 22%; in the assay with Rattus norvegicus [5] it was 7%. This compound also yielded an IC50 in assay [4] of 72.1 µM.

Turning to `Cc1ccc(-c2cc(Cc3ccco3)c3c(ncn4c(=O)c5cc(Br)ccc5nc34)n2)cc1`, the inhibition in vivo at 50 mg/kg with Rattus norvegicus [1] came out at 24%; with Rattus norvegicus [2], 37%; in the assay on Rattus norvegicus [3], 41%; in the assay with Rattus norvegicus [5] it was 13%. In assay [4], half-maximal inhibition (IC50) was put at 72.5 µM.

Take `COc1ccc(-c2csc3ncn4c(=O)c5cc(Br)ccc5nc4c23)cc1`: the inhibition in vivo at 50 mg/kg with Rattus norvegicus [1] amounted to 53%; with Rattus norvegicus [2] it was 59%; with Rattus norvegicus [3] it was 70%; with Rattus norvegicus [5] it was 50%. The same compound came in with an IC50 in assay [4] of 82.2 µM.

As to `CC(C)Cn1c(=O)n(C)c(=O)c2nc[nH]c21` [ISOBUTYLMETHYLXANTHINE], in assay [4], the IC50 was found to be 24.7 µM.

Usually inhibition in vivo stands for the change of the read-out against control, counted positive when it falls. For orientation: IC50 means the concentration at which inhibition is half-maximal. A lower IC50 goes with greater potency.
